Test results: patent publication US20170231928A1, “SOLID COMPOSITION OF FINGOLIMOD AND PREPARATION THEREOF” (SUNSHINE LAKE PHARMA CO., LTD., priority 2014, published 2017)

Test: Excipient compatibility test: API and diluents, related substances
Assay type: physicochemical
Procedure: Some API and excipients mixture were weighed, placed in the vials, added with appropriate amount of purified water (w/w), and then sealed (simulated hot and humid environment) and placed in 60° C. oven. Sampled on the 10th day, and tested the content (%) of the related substances (single impurity and total impurities).

[1] = After 10 days (60° C.), water added, sealed

CCCCCCCCc1ccc(CCC(N)(CO)CO)cc1 [API, 2-amino-2-[2-(4-octylphenyl)ethyl]propan-1,3-diol]
Related substances RRT = 0.84 (0 day): 0.06%
Related substances Total impurities (0 day): 0.06%
Related substances RRT = 0.84 [1]: 0.07%
Related substances RRT = 1.35 [1]: 0.03%
Related substances Total impurities [1]: 0.10%
